Assay: Penetration amount of moisture control material inside hair (extraction, HPLC)
Details: compared to corresponding composition without 2-hydroxyethyl urea (XXVII and XXVIII)
Protocol: Each hair tress is extracted 3 times with 0.1% TFA (Trifluoroacetic acid) in methanol and the individual extracts are analyzed separately using HPLC method.

SMILES: O=C(O)c1ccccc1O [Salicylic acid]
- Increase of penetration inside hair with 2% of 2-hydroxyethyl urea: 14%

— US10117819B2, “Composition for hair frizz reduction” (The Procter & Gamble Company, priority 2014, dated 2018)
